“Also recorded” adds a separate entry of the source. Where two headings read alike, the source gives them in different places. Where a SMILES comes first, the peptide text is derived from it. The star is where a group is joined. Cbz = O=C(OCc1ccccc1)*
Experiments:
[1] = system: TyrRS; format: cell-based, rat; conditions: for neuronal TyrRS levels: picomolar concentration (5-50 pM); for levels of neuronal TyrRS: neurotoxic agent alone, after 4 hr of treatment
Description: (§1) Primary cortical neurons were dissected from E18 Sprague Dawley rat pups in Hibernate E (BrainBits®) and dissociated using the Neural Tissue Dissociation kit (Miltenyi Biotec). Minced cortices were incubated in a pre-warmed enzyme mix at 37° C. for 15 min; tissues were then triturated and strained using a 40 μm cell strainer. After washing and centrifugation, neurons were seeded in 50 μg/ml poly-D-Lysine (Sigma-Aldrich) coated tissue culture plates. NBActive-1 medium (BrainBits®) supplemented with 100 U/ml of Penicillin-Streptomycin (Life Technologies™), 2 mM L-Glutamine (Life Technologies™), and 1×N21 supplement (R&D Systems™) was used as culture medium. For preparation of culture medium containing reduced tyrosine, the components of NBActive-1 medium were altered to combined with a reduced concentration of tyrosine, as mentioned in Table 1, and was supplemented with 100 U/ml of Penicillin-Streptomycin (Life Technologies™), 2 mM L-Glutamine (Life Technologies™), and 1×N21 supplement (R&D Systems™) to obtained culture medium with reduced tyrosine. Control (non-targeting), TyrRS, and PARP1 siRNAs were obtained from Invitrogen™ (#AM4635, s443, and s130207, respectively). Rat cortical neurons at 5 DIV were transfected with 75 nM control or TyrRS siRNA using DharmaFECT™ 3 Transfection Reagent. A second transfection was done two days later using 75 nM of TyrRS siRNA, followed by cell collection or assays after another 48 hr. For PARP1 siRNA, neurons at 7 DIV were transfected with 75 nM siRNA for both control and PARP1 siRNA.
(§2) Cultured neurons (DIV 9-10) were washed once with cold 1×PBS and lysed in cell lysis buffer (20 mM Tris-HCl (pH 7.5), 150 mM NaCl, 1 mM Na2EDTA, 1 mM EGTA, 1% Triton™, 2.5 mM sodium pyrophosphate, 1 mM beta-glycerophosphate, 1 mM Na3VO4, 1 μg/ml leupeptin supplemented with protease inhibitor). The lysates were centrifuged at 10,000 RPM for 15 mins at 4° C. to separate the chromatin-bound and soluble fractions. Lysates were quantified using Bio-Rad™ Protein Assay and equal amounts of protein were loaded onto a 4 to 12% gradient gel (Invitrogen™ NuPAGE™). Protein was transferred from the gel to 0.2 μm NC membranes at 25 V for 10 mins using transfer stacks (iBlot™ 2-Invitrogen™) and blocked with 5% non-fat milk in TBST (10 mM Tris-HCl pH 8.0, 150 mM NaCl, 0.01% Tween-20) for 1 hr before application of primary antibodies. Primary and secondary antibodies were incubated overnight at 4° C. and for 1 hr at room temperature, respectively. Immobilon® ECL Ultra Western HRP Substrate (WBULS0500, Millipore™) and a luminescent image analyzer (ChemiDoc™ Imaging System, Bio-Rad™) were used to detect proteins. Quantification of western blots was done using ImageJ (Version 1.53c).
Cultured cortical neurons (DIV 9-10) were fixed in 4% formaldehyde for 15 min, followed by permeabilization and blocking for 30 min in 5% BSA (PBS) and 0.1% Tween™ 20 at room temperature. Incubation with primary antibodies was done at 4° C. overnight. The names and dilutions of the primary antibodies used for IF are described in Table 3. Secondary antibodies were incubated for 1 hr at room temperature. Secondary antibodies used were Alexa Fluor® 647 (anti-chicken), Alexa Fluor® 555 (anti-mouse), Alexa Fluor® 488 (anti-rabbit) from Invitrogen™ at 1:1000 dilution. Coverslips were then mounted using DAPI (4′,6-diamidino-2-phenylindole)-supplemented mounting medium, ProLong™ Gold Antifade (Invitrogen™) and imaged with Leica DMI6000 epifluorescent microscope using oil immersion 63×/NA 1.4 objective. The quantification for total protein levels in neurons was done using ImageJ (version 1.53c), and imaging parameters were matched for exposure, gain, and offset.
(§3) The various compounds used for treatments and their stock concentrations in Table 4.

[2] = system: rat cortical neurons; assay: MTT cell viability assay; conditions: for effect on cis-RSV-mediated neuroprotective effects: combination with cis-RSV, NMDA toxicity; for effect on trans-RSV-mediated neurotoxicity: combination with trans-RSV; for neurotoxicity (viability): D-amino acid alone
Description: (§4) Rat cortical neurons (DIV9-11) were exposed to different treatments (NMDA, ETO, H2O2, MPP+) after seeding 20,000 cells/well in 96-well plates. Cell viability was then assessed at 48 hr after the initial exposure to NMDA. 3-[4,5-dimethylthiazole-2-yl]-2,5-diphenyltetrazolium bromide (MTT) assays were used to assess change in cell viability. […] Cultured rat cortical neurons were incubated with MTT (0.5 mg/mL). In the MTT assay, after 2 hr incubation, the insoluble purple product formazan resulting from the reduction of MTT by NAD (P) H-dependent oxidoreductases present in cells with viable mitochondria was solubilized in dimethyl sulfoxide at room temperature, under agitation, and protected from light. The percentage of MTT reduced as measured by the difference between the absorbances at 570 nm read in a spectrophotometer (SpectraMax® 190R Molecular Devices, UK).

[3] = system: histone H3-Ser10-ADP-ribosylation; assay: Histone H3 serine-ADP-ribosylation immunoblot in cortical neurons; format: cell-based, rat; conditions: for histone serine-ADP-ribosylation: picomolar concentration (5-50 pM); for histone H3 serine-ADP-ribosylation: compound alone
Description: FIG. 5B presents representative immunoblots and quantification of histone H3-Ser10-ADP-ribosylation levels in cortical neurons (DIV9) using anti-H3-Ser10-ADPR antibody after treatment with D-tyrosine (2.5 and 5 mM).
as §2

[4] = system: neuronal chromatin; assay: Chromatin fraction immunoblots of cortical neurons; format: cell-based, rat; conditions: picomolar concentration
Description: as §2

[5] = system: monosomes; assay: Monosome formation in cortical neurons; format: cell-based, rat
[6] = system: PheRSα/β; assay: PheRSα/β protein levels in cortical neurons (Western blot); format: cell-based, rat; conditions: for PheRSβ levels: compound alone
Description: as §1, §2, §3

[7] = system: eEF2; assay: eEF2 phosphorylation (p-eEF2) Western blot in cortical neurons; format: cell-based, rat; conditions: compound alone
Description: as §1, §2

[8] = system: HPF1; assay: HPF1 levels immunoblot in cortical neurons; format: cell-based, rat; conditions: compound alone
Description: FIG. 5A presents immunoblots showing the protein levels of HPF1 in rat cortical neurons (DIV9-10) after treatment with Tyr ([…]) for up to 8 hr.
as §2

[9] = system: cleaved caspase-3; assay: Cleaved caspase-3 immunoblot; format: cell-based, rat; conditions: compound alone; trans-RSV at high concentration
Description: FIG. 17E presents immunoblots showing the levels of cleaved caspase-3 in rat cortical neurons (DIV 9/10) after the treatment with D-Tyr (2 mM) for 16 hr.

[10] = system: rat cortical neurons
Description: as §4

[11] = compound alone, rat cortical neurons

Molecule: CO/C1=C\C(C)=C\[C@@H](C)[C@@H](O)[C@@H](C)C/C(C)=C/C=C/[C@H](OC)[C@@H]([C@@H](C)[C@@H](O)[C@H](C)[C@@]2(O)C[C@@H](O)[C@H](C)[C@@H](C(C)C)O2)OC1=O [bafilomycin]
- TyrRS protein levels [1, 11]: increased the levels of TyrRS

Molecule: O=C(c1cc(Cc2n[nH]c(=O)c3ccccc23)ccc1F)N1CCN(C(=O)C2CC2)CC1 [olaparib]
- effect on cis-RSV-mediated neuroprotective effects [2]: mitigated the neuroprotective effects of cis-RSV
- effect on trans-RSV-mediated neurotoxicity [2]: did not affect trans-RSV-mediated neurotoxicity

Molecule: N[C@H](Cc1ccccc1)C(=O)O [D-Phe]
- neurotoxicity (viability) [2]: had no significant effects

Molecule: amyloid beta 42: amyloid beta 42 peptide at physiological picomolar concentration
- neuronal TyrRS levels [1]: stimulation of neuronal TyrRS protein levels; also recorded: endogenous stimulator
- histone serine-ADP-ribosylation [3]: activation of histone serine-ADP-ribosylation; also recorded: endogenous stimulator
- chromatin trapping of auto-PARylated PARP1 with Rad52, DNA polymerase beta, ligase III, TyrRS [4]: trapping of auto-PARylated PARP1 along with Rad52, DNA polymerase beta, ligase III, TyrRS onto the chromatin
- monosome formation ([5]; picomolar amyloid beta 42 (5-50 pM; 10 picomolar in FIG. 20A)): endogenous stimulator of monosome formation

Molecule: CC(C)C[C@@H](C=O)NC(=O)[C@H](CC(C)C)NC(=O)[C@H](CC(C)C)NC(=O)OCc1ccccc1 [MG132] (Cbz-Leu-Leu-Leu-aldehyde)
- TyrRS protein levels [1, 11]: increased the levels of TyrRS

Molecule: C[C@@H]1C[C@@H]([C@H](O)CC2CC(=O)NC(=O)C2)C(=O)[C@@H](C)C1 [cycloheximide]
- effect on cis-RSV-mediated increase in TyrRS level ([1]; combination with cis-RSV): abrogated
- TyrRS protein levels [1, 11]: decreased TyrRS levels

Molecule: O=C(COc1ccc(Cl)cc1)NC1CCC(NC(=O)COc2ccc(Cl)cc2)CC1 (stereo not shown) [ISRIB]
- TyrRS protein levels ([1]; ISRIB 5-50 nM): increased the protein levels of TyrRS
- effect on trans-RSV mediated depletion of TyrRS ([1]; combination with trans-RSV): rescued trans-RSV mediated depletion of TyrRS
- TyrRS levels ([1]; higher doses of ISRIB (250-500 nM)): decreased TyrRS levels
- PheRSβ protein levels ([6]; ISRIB 5-50 nM): increased the protein levels of TyrRS and PheRSβ
- eEF2 phosphorylation (p-eEF2) [7]: stimulated the dephosphorylation of eEF2
- HPF1 levels [8]: increased HPF1 levels
- histone H3 serine-ADP-ribosylation [3]: induction of histone H3 serine-ADP-ribosylation
- effect on trans-RSV-mediated neurotoxicity [2]: protected against neurotoxic effects of trans-RSV

Molecule: CN(C)Cc1ccc(-c2nc3cccc4c3n2CCNC4=O)cc1 [AG-14361]
- effect on cis-RSV-mediated neuroprotective effects [2]: did not affect cis-RSV-mediated neuroprotective effects

Molecule: N[C@@H](Cc1ccc(O)c(O)c1)C(=O)O [L-DOPA, 3,4-dihydroxy-L-phenylalanine]
- TyrRS protein levels [1, 11]: decreased the levels of TyrRS
- PheRSβ levels [6]: decreased the levels of TyrRS and PheRSβ

Molecule: amyloid beta 40: amyloid beta 40 peptide at picomolar concentration
- neuronal TyrRS levels [1]: stimulation of neuronal TyrRS protein levels
- histone serine-ADP-ribosylation [3]: activation of histone serine-ADP-ribosylation

Molecule: CCn1c(=O)c2cc(C(N)=O)c(N)nc2n(C2CC2)c1=O [eEF2K inhibitor]
- effect on trans-RSV-mediated neurotoxicity [2]: protected against neurotoxic effects of trans-RSV

Molecule: N[C@H](Cc1ccc(O)cc1)C(=O)O [D-Tyr, D-tyrosine]
- histone H3 serine-ADP-ribosylation [3]: potent inhibitor of TyrRS/PARP1/HPF1-dependent serine-ADP-ribosylation and DNA repair
- levels of cleaved caspase-3 [9]: increased the levels of cleaved caspase-3
- neurotoxicity (viability) [2]: induced neurotoxicity

Molecule: Cn1ncnc1[C@H]1c2n[nH]c(=O)c3cc(F)cc(c23)N[C@@H]1c1ccc(F)cc1 [talazoparib]
- effect on amyloid beta 42-induced monosome formation ([5]; combination with amyloid beta 42 (10 picomolar)): lost

Molecule: NCCc1cc(O)c(O)cc1O [Formula 6-OHDA, 6-hydroxydopamine]
- TyrRS protein levels [1, 11]: decreased the levels of TyrRS
- PheRSβ levels [6]: decreased the levels of TyrRS and PheRSβ

Molecule: NCCc1ccc(O)c(O)c1 [DA, dopamine]
- TyrRS protein levels [1]: increased the protein levels of TyrRS
- histone H3 serine-ADP-ribosylation [3]: stimulated histone H3 serine-ADP-ribosylation
- effect on trans-RSV-mediated neurotoxicity [2]: protected against neurotoxic effects of trans-RSV

Molecule: CN[C@H](CC(=O)O)C(=O)O [NMDA, N-Methyl-D-aspartate]
- levels of neuronal TyrRS [1]: decreased the levels of neuronal TyrRS

Molecule: C[n+]1ccc(-c2ccccc2)cc1 [MPP+, 1-methyl-4-phenylpyridinium]
- levels of neuronal TyrRS [1]: decreased the levels of neuronal TyrRS

Molecule: Cc1c(O)cccc1C(=O)N[C@@H](CSc1ccccc1)[C@H](O)CN1C[C@H]2CCCC[C@H]2C[C@H]1C(=O)NC(C)(C)C [nelfinavir]
- TyrRS protein levels [1, 11]: depleted neuronal TyrRS

Molecule: N[C@H](Cc1c[nH]c2ccccc12)C(=O)O [D-Trp]
- neurotoxicity (viability) [10]: had no significant effects

Molecule: N[C@@H](Cc1ccccc1)C(=O)O [phenylalanine, L-phenylalanine]
- TyrRS protein levels [1, 11]: decreased the levels of TyrRS
- PheRSβ levels [6]: decreased the levels of TyrRS and PheRSβ

B1: BDNF: brain-derived neurotrophic factor (protein, UniProt P23560 19-247, looked up)
Neurotrophic factor BDNF …: APMKEANIRGQGGLAYPGVRTHGTLESVNGPKAGSRGLTSLADTFEHVIEELLDEDQKVRPNEENNKDADLYTSRVMLSSQVPLEPPLLFLLEEYKNYLDAANMSMRVRRHSDPARRGELSVCDSISEWVTAADKKTAVDMSGGTVTVLEKVPVSKGQLKQYFYETKCNPMGYTKEGCRGIDKRHWNSQCRTTQSYVRALTMDSKKRIGWRFIRIDTSCVCTLTIKRGR
- TyrRS protein levels [1, 11]: stimulates the de novo synthesis of neuronal TyrRS
- HPF1 levels [8]: increased HPF1 levels
- histone H3 serine-ADP-ribosylation [3]: induction of histone H3 serine-ADP-ribosylation

From US20250241878A1, “TYROSINE AND RESVERATROL DERIVATIVES AS NOVEL MODULATORS OF CELLULAR SERINE ADP-RIBOSYLATION” (UNIVERSITY OF SOUTH CAROLINA, priority 2022, published 2025)
